Measured values published in PMC8892522 (Proceedings of the National Academy of Sciences of the …, 2022).
pIC50, pKd: −log10 of the molar value.

How the values were obtained:
[1] = target: T1, soluble epoxide hydrolase (sEH) (Mus musculus, UniProt P34914); experiment: fluorescent substrate; type: biochemical
T1 sequence (P34914 1-554): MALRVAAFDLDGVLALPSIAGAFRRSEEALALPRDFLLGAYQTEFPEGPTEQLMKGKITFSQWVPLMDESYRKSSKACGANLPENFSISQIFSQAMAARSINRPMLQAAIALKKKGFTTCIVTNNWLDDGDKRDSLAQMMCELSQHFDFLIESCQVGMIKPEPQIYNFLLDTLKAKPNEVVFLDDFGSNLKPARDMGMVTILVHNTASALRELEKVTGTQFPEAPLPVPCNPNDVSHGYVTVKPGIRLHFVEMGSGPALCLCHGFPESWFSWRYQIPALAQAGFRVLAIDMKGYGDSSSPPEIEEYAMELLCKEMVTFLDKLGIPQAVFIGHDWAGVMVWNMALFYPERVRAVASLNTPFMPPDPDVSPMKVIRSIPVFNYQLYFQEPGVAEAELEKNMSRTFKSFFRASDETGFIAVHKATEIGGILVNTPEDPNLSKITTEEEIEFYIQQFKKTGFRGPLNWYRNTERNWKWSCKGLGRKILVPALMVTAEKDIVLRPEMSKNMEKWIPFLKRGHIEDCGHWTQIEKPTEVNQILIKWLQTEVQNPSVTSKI

[2] = target: T2, soluble epoxide hydrolase (sEH) (Homo sapiens, UniProt P34913); experiment: cocrystal structure; type: binding
T2 sequence (P34913 230-555): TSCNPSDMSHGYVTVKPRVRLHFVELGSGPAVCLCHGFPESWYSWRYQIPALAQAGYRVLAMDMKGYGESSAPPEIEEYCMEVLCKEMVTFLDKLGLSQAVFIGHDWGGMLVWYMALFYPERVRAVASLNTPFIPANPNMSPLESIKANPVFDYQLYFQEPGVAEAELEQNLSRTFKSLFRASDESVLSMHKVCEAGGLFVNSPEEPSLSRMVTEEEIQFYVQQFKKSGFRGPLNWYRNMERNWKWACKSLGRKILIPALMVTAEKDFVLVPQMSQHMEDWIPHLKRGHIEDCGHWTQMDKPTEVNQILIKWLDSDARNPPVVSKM

pIC50 [1]: 6.38 | pKd [2]: 5.84
Compound: C=C(C)[C@H](CC=C(C)C)Cc1c(O)cc(OC)c2c1O[C@H](c1ccc(O)cc1O)CC2=O [kurarinone]
